Experimental data published in patent US8871756B2 (Hoffmann-La Roche Inc., priority 2011, dated 2014).

The molecules below were run on RSV Long strain (assay: Viral cytopathic effect (CPE) assay, anti-RSV activity). Settings: human respiratory syncytial virus, 144 h, RSV Long strain (ATCC); cell viability after 6 days, Cell Counting kit-8.
Type: cell-based, Respiratory Syncytial Virus
Summary of the method: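 EC50 was derived from CCK-8 viability at 450/630 nm measured 6 days post-infection. Infection used enough RSV Long strain for approximately 80–90% cytopathic effect, in the presence of half-log serially diluted compound. Cells were plated the day before at 6×10^3 per well in DMEM/10% FBS.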
`Cc1ccc2nc(N3CCS(=O)(=O)c4ccccc4C3)cc(N[C@@H](C)C(=O)O)c2c1` [Example 14-1, N-[2-(1,1-Dioxido-2,3-dihydro-1,4-benzothiazepin-4(5H)-yl)-6-methylquinolin-4-yl]-L-alanine] showed an EC50 of 2.19 µM.
`Cc1ccc2nc(N3CCS(=O)(=O)c4ccccc4C3)cc(NCC3(N)CCCCC3)c2c1` [Example 2-11, N-[(1-Aminocyclohexyl)methyl]-2-(1,1-dioxido-2,3-dihydro-1,4-benzothiazepin-4(5H)-yl)-6-methylquinolin-4-amine] was tested, and the EC50 was 0.008 µM.
In the case of `Cc1ccc2nc(N3CCS(=O)(=O)c4ccccc4C3)cc(NCCN3CCCCC3)c2c1` [Example 9-6, 2-(1,1-Dioxido-2,3-dihydro-1,4-benzothiazepin-4(5H)-yl)-6-methyl-N-[2-(piperidin-1-yl)ethyl]quinolin-4-amine], the EC50 is reported as 0.275 µM.
Molecule `Cc1ccc2nc(N3CCCc4ccccc4C3)cc(NCCN)c2c1` [Example 118-3, N-[6-Methyl-2-(1,3,4,5-tetrahydro-2H-2-benzazepin-2-yl)quinolin-4-yl]ethane-1,2 diamine] has an EC50 of 0.063 µM.
Molecule `CCc1ccc2nc(N3CCS(=O)(=O)c4ccccc4C3)cc(CCC(=O)O)c2c1` [Example 95, 3-[2-(1,1-Dioxido-2,3-dihydro-1,4-benzothiazepin-4(5H)-yl)-6-ethylquinolin-4-yl]propanoic acid] has an EC50 of 3.04 µM.
For `Cc1ccc2nc(N3CCS(=O)(=O)c4ccccc4C3)cc(N)c2c1` [Example 39, 2-(1,1-Dioxido-2,3-dihydro-1,4-benzothiazepin-4(5H)-yl)-6-methylquinolin-4-amine], the EC50 was 0.092 µM.
Work on `NCCNc1cc(N2CCCc3ccccc3C2)nc2c(Cl)cccc12` [Example 118-20, N-[8-Chloro-2-(1,3,4,5-tetrahydro-2H-2-benzazepin-2-yl)quinolin-4-yl]ethane-1,2-diamine] yielded an EC50 of 1.13 µM.
In the case of `NC1(CNc2cc(N3CCS(=O)(=O)c4ccccc4C3)nc3ccccc23)COC1` [Example 3-48, N-[(3-Aminooxetan-3-yl)methyl]-2-(1,1-dioxido-2,3-dihydro-1,4-benzothiazepin-4(5H)-yl)quinolin-4-amine], the EC50 is reported as 0.023 µM.
Molecule `Cc1ccc2nc(N3CCS(=O)(=O)c4ccccc4C3)cc(NC(=O)CO)c2c1` [Example 47-9, N-[2-(1,1-Dioxido-2,3-dihydro-1,4-benzothiazepin-4(5H)-yl)-6-methylquinolin-4-yl]-2-hydroxyacetamide] has an EC50 of 0.192 µM.
Molecule `Cc1cccc2c(NCCCN)cc(N3CCS(=O)(=O)c4ccccc4C3)nc12` [Example 17-5, N-[2-(1,1-Dioxido-2,3-dihydro-1,4-benzothiazepin-4(5H)-yl)-8-methylquinolin-4-yl]propane-1,3-diamine] has an EC50 of 1.5 µM.
`COc1ccc2c(c1)CN(c1cc(NCCN)c3ccccc3n1)CCC2` [Example 118-17, N-[2-(8-Methoxy-1,3,4,5-tetrahydro-2H-2-benzazepin-2-yl)quinolin-4-yl]ethane-1,2-diamine] showed an EC50 of 0.806 µM.
Molecule `Cc1ccc2nc(N3CCS(=O)(=O)c4ccccc4C3)cc(NCCCO)c2c1` [Example 9-5, 3-{[2-(1,1-Dioxido-2,3-dihydro-1,4-benzothiazepin-4(5H)-yl)-6-methylquinolin-4-yl]amino}propan-1-ol] has an EC50 of 0.179 µM.
`Cc1ccc2nc(N3CCS(=O)(=O)c4ccccc4C3)nc(NCC(F)(F)CN)c2c1` [Example 56-4, N-[2-(1,1-Dioxido-2,3-dihydro-1,4-benzothiazepin-4(5H)-yl)-6-methylquinazolin-4-yl]-2,2-difluoropropane-1,3-diamine] was tested, and the EC50 was 0.027 µM.
In the case of `NC1(CNc2nc(N3CC[S+]([O-])c4ccccc4C3)nc3ccc(Cl)cc23)COC1` (stereo not drawn) [Example 57-5, N-[(3-Aminooxetan-3-yl)methyl]-6-chloro-2-(1-oxido-2,3-dihydro-1,4-benzothiazepin-4(5H)-yl)quinazolin-4-amine], the EC50 is reported as 0.027 µM.
For `NCCNc1cc(N2CC[S+]([O-])c3ccccc3C2)nc2ccc(Cl)cc12` (stereo not drawn) [Example 18-7, N-[6-Chloro-2-(1-oxido-2,3-dihydro-1,4-benzothiazepin-4(5H)-yl)quinolin-4-yl]ethane-1,2-diamine], the EC50 was 0.023 µM.
With `Cc1ccc2nc(N3CCS(=O)(=O)c4ccccc4C3)cc(NCCCCN)c2c1` [Example 9-19, N-[2-(1,1-Dioxido-2,3-dihydro-1,4-benzothiazepin-4(5 H)-yl)-6-methylquinolin-4-yl]butane-1,4-diamine] the EC50 was 0.0007 µM.
`Cc1ccc2nc(N3CCS(=O)(=O)c4ccccc4C3)cc(NC(=O)Cc3ccccn3)c2c1` [Example 47-6, N-[2-(1,1-Dioxido-2,3-dihydro-1,4-benzothiazepin-4(5H)-yl)-6-methylquinolin-4-yl]-2-(pyridin-2-yl)acetamide] gave an EC50 of 2.31 µM.
In the case of `CC(=O)NCCNc1cc(N2CCS(=O)(=O)c3ccccc3C2)nc2ccc(C)cc12` [Example 63-1, N-(2-{[2-(1,1-Dioxido-2,3-dihydro-1,4-benzothiazepin-4(5H)-yl)-6-methylquinolin-4-yl]amino}ethyl)acetamide], the EC50 is reported as 3.13 µM.
Work on `NCCNc1cc(N2CCCc3ccccc3C2)nc2ccc(F)cc12` [Example 118-21, N-[6-Fluoro-2-(1,3,4,5-tetrahydro-2H-2-benzazepin-2-yl)quinolin-4-yl]ethane-1,2-diamine] yielded an EC50 of 1.38 µM.
For `Cc1ccc2nc(N3CCS(=O)(=O)c4ccccc4C3)cc(OC3CCNCC3)c2c1` [Example 98-2], the EC50 was 3.16 µM.
`Cc1ccc2nc(N3CCS(=O)(=O)c4ccccc4C3)cc(NCCCCCCCCN)c2c1` [Example 12-5, N-[2-(1,1-Dioxido-2,3-dihydro-1,4-benzothiazepin-4(5H)-yl)-6-methylquinolin-4-yl]octane-1,8-diamine] gave an EC50 of 0.448 µM.
In the case of `Cc1ccc2nc(N3CCS(=O)(=O)c4ccccc4C3)cc(NCC(F)CN)c2c1` (stereo not drawn) [Example 3-21, N-[2-(1,1-Dioxido-2,3-dihydro-1,4-benzothiazepin-4(5H)-yl)-6-methylquinolin-4-yl]-2-fluoropropane-1,3-diamine], the EC50 is reported as 0.006 µM.
Molecule `CC(=O)Nc1cc(N2CCS(=O)(=O)c3ccccc3C2)nc2ccc(C)cc12` [Example 3-60, N-[2-(1,1-Dioxido-2,3-dihydro-1,4-benzothiazepin-4(5H)-yl)-6-methylquinolin-4-yl]acetamide] has an EC50 of 0.617 µM.
Molecule `Cc1ccc2nc(N3CCS(=O)(=O)c4ccccc4C3)cc(NCC(C)N)c2c1` (stereo not drawn) [Example 5-5, N˜1˜-[2-(1,1-Dioxido-2,3-dihydro-1,4-benzothiazepin-4(5H)-yl)-6-methylquinolin-4-yl]propane-1,2-diamine] has an EC50 of 0.014 µM.
`Cc1ccc2nc(N3CCS(=O)(=O)c4ccccc4C3)nc(N[C@@H]3CNC[C@H]3F)c2c1` (relative stereo) [Example 92-2, N-(trans-4-Fluoropyrrolidin-3-yl)-6-methyl-2-(1,1-dioxido-2,3-dihydro-1,4-benzothiazepin-4(5H)-yl)quinazolin-4-amine] gave an EC50 of 0.019 µM.
`NCCNc1cc(N2CCCc3ccccc3C2)nc2ccc(Cl)cc12` [Example 118-5, N-[6-Chloro-2-(1,3,4,5-tetrahydro-2H-2-benzazepin-2-yl)quinolin-4-yl]ethane-1,2-diamine] showed an EC50 of 0.178 µM.
`Cc1ccc2nc(N3CC[S+]([O-])c4ccccc4C3)cc(NCC(O)CO)c2c1` (stereo not drawn) [Example 32-4, 3-{[6-Methyl-2-(1-oxido-2,3-dihydro-1,4-benzothiazepin-4(5H)-yl)quinolin-4-yl]amino}propane-1,2-diol] showed an EC50 of 0.272 µM.
`NC1(CNc2nc(N3CC[S+]([O-])c4ccccc4C3)nc3ccccc23)COC1` (stereo not drawn) [Example 57-2, N-[(3-Aminooxetan-3-yl)methyl]-2-(1-oxido-2,3-dihydro-1,4-benzothiazepin-4(5H)-yl)quinazolin-4-amine] was tested, and the EC50 was 0.018 µM.
`[2H]C([2H])([2H])c1ccc2nc(N3CC[S+]([O-])c4ccccc4C3)nc(NCC3(CN)COC3)c2c1` (stereo not drawn) [Example 107, N-{[3-(Aminomethyl)oxetan-3-yl]methyl}-6-trideuteriomethyl-2-(1-oxido-2,3-dihydro-1,4-benzothiazepin-4(5H)-yl)quinazolin-4-amine] gave an EC50 of 0.001 µM.
`NC1(CNc2cc(N3CC[S+]([O-])c4ccccc4C3)nc3ccc(Cl)cc23)COC1` (stereo not drawn) [Example 18-4, N-[(3-Aminooxetan-3-yl)methyl]-6-chloro-2-(1-oxido-2,3-dihydro-1,4-benzothiazepin-4 (5H)-yl)quinolin-4-amine] showed an EC50 of 0.061 µM.
With `Cc1ccc2nc(N3CCS(=O)(=O)c4ccccc4C3)cc(N3C[C@@H]4NCCO[C@@H]4C3)c2c1` [Example 8-5, 4-{4-[(4aS,7aR)-Hexahydropyrrolo[3,4-b][1,4]oxazin-6(2H)-yl]-6-methylquinolin-2-yl}-2,3,4,5-tetrahydro-1,4-benzothiazepine 1,1-dioxide] the EC50 was 0.074 µM.
With `Cc1ccc2nc(N3CCS(=O)(=O)c4ccccc4C3)cc(NC(=O)CN)c2c1` [Example 40-1, N-[2-(1,1-Dioxido-2,3-dihydro-1,4-benzothiazepin-4(5H)-yl)-6-methylquinolin-4-yl]glycinamide] the EC50 was 0.039 µM.
In the case of `NCCNc1cc(N2CCS(=O)(=O)c3ccccc3C2)nc2ccc(N)cc12` [Example 85, N^˜4^˜-(2-Aminoethyl)-2-(1,1-dioxido-2,3-dihydro-1,4-benzothiazepin-4(5H)-yl)quinoline-4,6-diamine], the EC50 is reported as 0.008 µM.
In the case of `Cc1ccc2nc(N3CCC(F)(F)c4ccccc4C3)cc(NCC(O)CN)c2c1` (stereo not drawn) [Example 110-4, 1-Amino-3-{[2-(5,5-difluoro-1,3,4,5-tetrahydro-2H-2-benzazepin-2-yl)-6-methylquinolin-4-yl]amino}propan-2-ol], the EC50 is reported as 0.06 µM.
`Cc1ccc2nc(N3CC[S+]([O-])c4ccccc4C3)cc(NCC(F)(F)CN)c2c1` (stereo not drawn) [Example 18-5, N-[2-(1-Oxido-2,3-dihydro-1,4-benzothiazepin-4(5H)-yl)-6-methylquinolin-4-yl]-2,2-difluoropropane-1,3-diamine] showed an EC50 of 0.057 µM.
Work on `Cc1ccc2nc(N3CCS(=O)(=O)c4ccccc4C3)cc(NC3CNCC34COC4)c2c1` (stereo not drawn) [Example 2-6, 2-(1,1-Dioxido-2,3-dihydro-1,4-benzothiazepin-4(5H)-yl)-6-methyl-N-(2-oxa-6-azaspiro[3.4]oct-8-yl)quinolin-4-amine] yielded an EC50 of 0.021 µM.
